Here are results for 13 compounds from patent US11999727B2 (Tango Therapeutics, Inc., priority 2020, dated 2024).

Experiment [1] deals with T1, PRMT5 (Homo sapiens, UniProt O14744).
T1 construct: purchased Viva (custom protein)
Nature of the experiment: PRMT5 biochemical IC50 assay with MTA as cofactor. The settings on record: PRMT5, MTA as cofactor; read-out: MTA IC50.

In experiment [2] the test system is HAP1 MTAP-deleted cell line. Nature of the experiment: Viability assay, MTAP-deleted cell line. Particulars: Homo sapiens, read-out: HAP1 MTAP deleted viability. It is filed as cell-based. From the text: Table 1 additionally indicates IC50 values in a viability assay for the MTAP-deleted cell line (column 10), indicating the effect of treatment with compound on cell survival.

In experiment [3] the test system is HAP1 MTAP-intact cell line. Nature of the experiment: SDMA in-cell western assay, HAP1 MTAP-intact. The experiment is classed as cell-based. The settings on record: Homo sapiens, HAP1, SDMA in-cell western, HAP1 MTAP-intact; read-out: MTAP HAP1 intact IC50. An outline of the steps: (§1)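 MTAP-null vs endogenous-MTAP HAP1 isogenic cells; in-cell western SDMA readout; IC50 per line.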

In experiment [4] the target is T1, PRMT5. Nature of the experiment: PRMT5 biochemical IC50 assay with no cofactor. The settings on record: PRMT5, no cofactor. From the text: Table 1 indicates IC50 values (μM) against PRMT5 for exemplary compounds in the presence of SAM as cofactor, with no cofactor, and with MTA as cofactor, respectively (columns 4-6). […] Ki values can be calculated from the IC50 values as described in the Examples section. As detailed in the Examples section, for the assay performed in the presence of SAM, IC50=Ki×1.5 (Ki=IC50/1.5).

The subject of experiment [5] is HAP1 MTAP-deleted cell line. Nature of the experiment: SDMA in-cell western assay, HAP1 MTAP-deleted. Particulars: for IC50: Homo sapiens, HAP1, SDMA in-cell western, HAP1 MTAP-deleted; for MTAP intact/deleted ratio: SDMA in-cell western. The experiment is classed as cell-based. An outline of the steps:
as §1

Experiment [6] concerns the target T1, PRMT5. Nature of the experiment: PRMT5 biochemical IC50 assay with SAM as cofactor. Particulars: PRMT5, SAM as cofactor; read-out: SAM IC50.
The mark [7] stands for this setting: read-out: No Cofactor/ rel IC50.
[8] abbreviates: read-out: HAP 1 MTAP deleted IC50.
Where [9] appears, read: IC50 ratio HAP1 MTAP-intact / HAP1 MTAP-deleted.
The mark [10] stands for this setting: HAP1, viability assay, MTAP-deleted cell line.
The mark [11] stands for this setting: read-out: HAP1 MTAP deleted IC50.
[12] abbreviates: IC50 ratio HAP1 MTAP-intact vs HAP1 MTAP-deleted.
[13] abbreviates: HAP1, viability IC50, MTAP-deleted cell line.

T1 sequence (O14744 whole entry): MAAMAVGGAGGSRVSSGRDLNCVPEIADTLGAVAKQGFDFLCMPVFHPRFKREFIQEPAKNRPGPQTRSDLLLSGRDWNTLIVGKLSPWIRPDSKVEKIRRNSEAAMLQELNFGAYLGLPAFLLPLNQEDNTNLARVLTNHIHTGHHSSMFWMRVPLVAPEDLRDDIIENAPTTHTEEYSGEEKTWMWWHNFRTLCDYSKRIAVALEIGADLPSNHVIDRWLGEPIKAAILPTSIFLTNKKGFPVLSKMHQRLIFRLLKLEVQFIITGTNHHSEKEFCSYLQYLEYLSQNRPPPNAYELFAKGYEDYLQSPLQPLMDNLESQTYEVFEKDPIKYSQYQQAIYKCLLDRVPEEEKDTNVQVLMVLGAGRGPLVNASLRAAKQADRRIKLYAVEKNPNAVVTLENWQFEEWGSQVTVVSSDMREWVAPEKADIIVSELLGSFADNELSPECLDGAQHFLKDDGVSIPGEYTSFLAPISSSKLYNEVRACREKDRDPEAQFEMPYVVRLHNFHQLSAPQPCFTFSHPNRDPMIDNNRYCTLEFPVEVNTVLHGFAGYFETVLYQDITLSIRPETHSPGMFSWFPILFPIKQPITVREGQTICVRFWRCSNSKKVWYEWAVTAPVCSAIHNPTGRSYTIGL
T1 sequence (Q9BQA1 whole entry partner): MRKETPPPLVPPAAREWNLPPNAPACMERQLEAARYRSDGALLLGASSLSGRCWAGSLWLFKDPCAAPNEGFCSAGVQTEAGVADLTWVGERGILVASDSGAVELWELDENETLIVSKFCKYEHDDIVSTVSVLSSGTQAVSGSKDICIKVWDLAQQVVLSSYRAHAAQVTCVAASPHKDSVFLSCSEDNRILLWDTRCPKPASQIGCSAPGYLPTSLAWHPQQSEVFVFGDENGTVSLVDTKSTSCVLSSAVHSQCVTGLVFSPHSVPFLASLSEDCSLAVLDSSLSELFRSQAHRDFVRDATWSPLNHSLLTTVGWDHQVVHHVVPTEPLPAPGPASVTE

On to `Cc1cc(NC(=O)C(=O)N2C[C@H](C)[C@H](OC(C)C)C[C@H]2c2ccccc2)cnc1N` (single isomer, unassigned) [Compound 1351], for which the IC50 on PRMT5 [1] was less than 50 nM; in experiment [2] (HAP1, viability, HAP1 MTAP-deleted cell line), less than 1000 nM; in experiment [3] it was less than 100 nM; on PRMT5 [4] (setting [7]), less than 50 nM; in experiment [5] (setting [8]), less than 100 nM; at PRMT5 [6], less than 50 nM. For the same compound, the “MTAP intact/deleted ratio” value in experiment [5] (setting [9]) was “B (an IC50 ratio greater than or equal to 3 fold but lower than 10 fold)”.

As for `CCc1cc(NC(=O)C(=O)N2C[C@@H](C)CC[C@@H]2c2ccc3sc(CN4CCOCC4)nc3c2)cnc1N` [Compound 1092, N-(6-amino-5-ethylpyridin-3-yl)-2-((2R,5S)-5-methyl-2-(2-(morpholinomethyl)benzo[d]thiazol-5-yl)piperidin-1-yl)-2-oxoacetamide], the IC50 on PRMT5 [1] was less than 50 nM; in experiment [2] (setting [10]) it was less than 1000 nM; in experiment [3] it was 100 to 1000 nM; at PRMT5 [4] (read-out: No Cofactor/rel IC50) it was less than 50 nM; in experiment [5] (setting [11]) it was less than 100 nM; at PRMT5 [6], 50 to 500 nM. For the same compound, the MTAP intact/deleted ratio entry in experiment [5] (setting [12]) was “A (an IC50 ratio greater than or equal to 10 fold)”.

Take `C[C@@H]1CC[C@H](c2cc(F)cc(Cl)c2)N(C(=O)C(=O)Nc2cncc(C(N)=O)c2)C1` (single isomer, unassigned) [Compound 625]: the IC50 at PRMT5 [1] is 50 to 500 nM; in experiment [2] (setting [13]), more than 10000 nM; in experiment [3], more than 1000 nM; on PRMT5 [4] (read-out: No Cofactor/rel IC50), more than 500 nM; in experiment [5] (setting [8]), 100 to 1000 nM; at PRMT5 [6], 50 to 500 nM. Moreover, the MTAP intact/deleted ratio entry in experiment [5] (setting [9]) is reported as “A (an IC50 ratio greater than or equal to 10 fold)”.

For the compound `Cc1cc([C@@H]2CC[C@@H](C)CN2C(=O)C(=O)Nc2cncc(C(N)=O)c2)ccc1OC1CCOC1` (mixture of isomers) [Compound 171, rac-5-{2-[(2R,5S)-5-Methyl-2-[3-methyl-4-(oxolan-3-yloxy)phenyl]piperidin-1-yl]-2-oxoacetamido}pyridine-3-carboxamide], the IC50 at PRMT5 [1] was less than 50 nM; in experiment [2] (setting [10]) it was 1000 to 10000 nM; in experiment [3], more than 1000 nM; on PRMT5 [4] (setting [7]) it was 50 to 500 nM; in experiment [5] (setting [8]), less than 100 nM; at PRMT5 [6], 50 to 500 nM. Moreover, in experiment [5] (setting [9]), the “MTAP intact/deleted ratio” value is “A (an IC50 ratio greater than or equal to 10 fold)”.

Turning to `CC(=O)N1CCC(c2cccc(C3CCCCN3C(=O)C(=O)Nc3cncc(C)c3)c2)CC1` (single isomer, unassigned) [Compound 73], the IC50 at PRMT5 [1] is more than 500 nM; in experiment [2] (setting [10]), more than 10000 nM; in experiment [3] it was more than 1000 nM; at PRMT5 [4] (setting [7]), more than 500 nM; in experiment [5] (setting [8]), more than 1000 nM; at PRMT5 [6], more than 500 nM. Further, the “MTAP intact/deleted ratio” value in experiment [5] (setting [9]) is recorded as “C (an IC50 ratio of less than 3 fold)”.

Take `CCc1ncc(NC(=O)C(=O)N2C[C@@H](C)CC[C@@H]2c2ccccc2)cc1C(N)=O` (racemic) [Compound 747, 2-Ethyl-5-[[2-[(2S,5R)-5-methyl-2-phenyl-1-piperidyl]-2-oxo-acetyl]amino]pyridine-3-carboxamide]: the IC50 at PRMT5 [1] was 50 to 500 nM; in experiment [2] (HAP1, viability assay, HAP1 MTAP-deleted) it was more than 10000 nM; in experiment [3], more than 1000 nM; on PRMT5 [4] (read-out: No Cofactor/rel IC50), 50 to 500 nM; in experiment [5] (setting [11]), more than 1000 nM; at PRMT5 [6] it was 50 to 500 nM. Also, the MTAP intact/deleted ratio entry in experiment [5] (setting [9]) is “B (an IC50 ratio greater than or equal to 3 fold but lower than 10 fold)”.

`Cc1cc(NC(=O)C(=O)N2C[C@H](C)[C@H](CC(C)C)C[C@H]2c2ccc3scnc3c2)cnc1N` (single isomer, unassigned) [Compound 1190]: the IC50 is less than 50 nM on PRMT5 [1]; less than 1000 nM in experiment [2] (setting [10]); 100 to 1000 nM in experiment [3]; less than 50 nM on PRMT5 [4] (read-out: No Cofactor/rel IC50); less than 100 nM in experiment [5] (setting [11]); 50 to 500 nM on PRMT5 [6]. The MTAP intact/deleted ratio entry in experiment [5] (setting [12]) was “A (an IC50 ratio greater than or equal to 10 fold)”.

On to `Cc1cc(NC(=O)C(=O)N2C[C@@H](C)CC[C@@H]2c2ccc3sc(C4CCN(C)CC4)cc3c2)cnc1N` [Compound 1220, N-(6-amino-5-methyl-3-pyridyl)-2-[(2R,5S)-5-methyl-2-[2-(1-methyl-4-piperidyl)benzothiophen-5-yl]-1-piperidyl]-2-oxo-acetamide], for which the IC50 was less than 50 nM at PRMT5 [1]; less than 1000 nM in experiment [2] (setting [10]); less than 100 nM in experiment [3]; less than 50 nM on PRMT5 [4] (read-out: No Cofactor/rel IC50); less than 100 nM in experiment [5] (setting [11]); less than 50 nM on PRMT5 [6]. Moreover, the MTAP intact/deleted ratio result in experiment [5] (setting [12]) is on record as “B (an IC50 ratio greater than or equal to 3 fold but lower than 10 fold)”.

With `C[C@@H]1CC[C@@H](c2cn[nH]c2)N(C(=O)C(=O)Nc2cncc(C(N)=O)c2)C1` (single isomer, unassigned) [Compound 970], the IC50 at PRMT5 [1] was more than 500 nM; in experiment [2] (setting [10]), more than 10000 nM; in experiment [3] it was more than 1000 nM; at PRMT5 [4] (read-out: No Cofactor/rel IC50) it was more than 500 nM; in experiment [5] (setting [8]), more than 1000 nM; at PRMT5 [6] it was more than 500 nM. Besides, the MTAP intact/deleted ratio result in experiment [5] (setting [9]) was “C (an IC50 ratio of less than 3 fold)”.

`CCc1cc(NC(=O)C(=O)N2C[C@H](C)CC[C@H]2c2ccc3sc(NC)nc3c2)cnc1N` (single isomer, unassigned) [Compound 896]: the IC50 at PRMT5 [1] was more than 500 nM; in experiment [2] (setting [10]), more than 10000 nM; in experiment [3] it was more than 1000 nM; at PRMT5 [4] (read-out: No Cofactor/rel IC50) it was more than 500 nM; in experiment [5] (setting [8]), more than 1000 nM; on PRMT5 [6], more than 500 nM. Besides, the MTAP intact/deleted ratio result in experiment [5] (setting [9]) is on record as “B (an IC50 ratio greater than or equal to 3 fold but lower than 10 fold)”.

For `CO[C@H]1C[C@H](c2ccc3scnc3c2)N(C(=O)C(=O)Nc2cnc(N)c(C)c2)C[C@H]1C` (relative stereo) [Compound 1216], the IC50 on PRMT5 [1] is less than 50 nM; in experiment [2] (setting [10]) it was less than 1000 nM; in experiment [3], less than 100 nM; on PRMT5 [4] (read-out: No Cofactor/rel IC50) it was less than 50 nM; in experiment [5] (setting [11]) it was less than 100 nM; at PRMT5 [6] it was 50 to 500 nM. Further, the MTAP intact/deleted ratio entry in experiment [5] (setting [12]) is given as “B (an IC50 ratio greater than or equal to 3 fold but lower than 10 fold)”.

On to `C[C@H]1CC[C@H](c2ccc(F)cc2)N(C(=O)C(=O)Nc2cnc(N)c(C3CC3)c2)C1` [Compound 989, N-(6-amino-5-cyclopropyl-3-pyridyl)-2-[(2R,5S)-2-(4-fluorophenyl)-5-methyl-1-piperidyl]-2-oxo-acetamide], for which the IC50 on PRMT5 [1] is less than 50 nM; in experiment [2] (setting [10]) it was less than 1000 nM; in experiment [3] it was more than 1000 nM; on PRMT5 [4] (read-out: No Cofactor/rel IC50) it was 50 to 500 nM; in experiment [5] (setting [8]), less than 100 nM; on PRMT5 [6], 50 to 500 nM. Moreover, the MTAP intact/deleted ratio result in experiment [5] (setting [9]) was “A (an IC50 ratio greater than or equal to 10 fold)”.

Turning to `Cc1cc(NC(=O)C(=O)N2C[C@@H](C)CC[C@@H]2[C@H]2CCC[C@@H](O)C2)cnc1N` (single isomer, unassigned) [Compound 566], the IC50 is 50 to 500 nM on PRMT5 [1]; 1000 to 10000 nM in experiment [2] (setting [13]); more than 1000 nM in experiment [3]; 50 to 500 nM on PRMT5 [4] (read-out: No Cofactor/rel IC50); 100 to 1000 nM in experiment [5] (setting [8]); more than 500 nM on PRMT5 [6]. For the same compound, the MTAP intact/deleted ratio entry in experiment [5] (setting [9]) is reported as “A (an IC50 ratio greater than or equal to 10 fold)”.
